In ChEMBL document CHEMBL1201862, “PubChem BioAssay data set” (2004):
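Step 1: Grow cells in 96-well plates. Step 2: Expose to compound for 48 hours at 5 concentrations. Step 3: Interpolate endpoints linearly; if unreached, use highest concentration. At the GI50, growth is halved.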 Calls of active or inactive are those of the source. Cut-off read from the data, not from the text of the source: active = GI50 up to about 1.1 µM and inactive = higher.

Legend:
Assay in all cases: NCI anticancer screen, dose series, 48 h
[1] = system: OVCAR-8
[2] = system: PC-3
[3] = system: SK-MEL-28
[4] = system: HOP-62
[5] = system: SF-268
[6] = system: SNB-19
[7] = system: RXF 393
[8] = system: IGROV-1
[9] = system: LOX IMVI
[10] = system: HCT-116
[11] = system: M14
[12] = system: SF-539
[13] = system: CCRF-CEM
[14] = system: SK-MEL-5
[15] = system: NCI/ADR-RES
[16] = system: RPMI-8226
[17] = system: Malme-3M
[18] = system: SK-OV-3
[19] = system: SR
[20] = system: UO-31
[21] = system: MCF7
[22] = system: HL-60
[23] = system: SN12C
[24] = system: EKVX
[25] = system: CAKI-1
[26] = system: HT-29
[27] = system: MDA-N
[28] = system: NCI-H522
[29] = system: Hs-578T
[30] = system: MDA-MB-231
[31] = system: BT-549
[32] = system: U-251
[33] = system: SK-MEL-2
[34] = system: 786-0
[35] = system: HCT-15
[36] = system: UACC-257
[37] = system: SNB-75
[38] = system: COLO 205
[39] = system: OVCAR-5
[40] = system: ACHN
[41] = system: T47D
[42] = system: A549
[43] = system: MOLT-4
[44] = system: MDA-MB-435
[45] = system: KM12
[46] = system: K562
[47] = system: UACC-62
[48] = system: NCI-H226
[49] = system: SW-620
[50] = system: NCI-H460
[51] = system: NCI-H23
[52] = system: OVCAR-4
[53] = system: HOP-92
[54] = system: OVCAR-3
[55] = system: SF-295
[56] = system: DU-145
[57] = system: A498
[58] = system: HCC 2998

Structure (SMILES): O=c1[nH]c2cc([N+](=O)[O-])c(N(CCO)CCO)c([N+](=O)[O-])c2[nH]1
- GI50 [1]: 31.3 µM (inactive)
- GI50 [2]: 44.4 µM (inactive)
- GI50 [3]: 29.4 µM (inactive)
- GI50 [4]: 33 µM (inactive)
- GI50 [5]: 37.4 µM (inactive)
- GI50 [6]: 39.8 µM (inactive)
- GI50 [7]: 16.7 µM (inactive)
- GI50 [8]: 65.5 µM (inactive)
- GI50 [9]: 37.5 µM (inactive)
- GI50 [10]: 27.7 µM (inactive)
- GI50 [11]: 28.6 µM (inactive)
- GI50 [12]: 23.8 µM (inactive)
- GI50 [13]: 44.7 µM (inactive)
- GI50 [14]: 17.5 µM (inactive)
- GI50 [15]: 31.8 µM (inactive)
- GI50 [16]: 26.7 µM (inactive)
- GI50 [17]: 61.2 µM (inactive)
- GI50 [18]: 27 µM (inactive)
- GI50 [19]: 24.1 µM (inactive)
- GI50 [20]: 35.1 µM (inactive)
- GI50 [21]: 46.8 µM (inactive)
- GI50 [22]: 28.2 µM (inactive)
- GI50 [23]: 34.8 µM (inactive)
- GI50 [24]: 12.9 µM (inactive)
- GI50 [25]: 29 µM (inactive)
- GI50 [26]: 30.3 µM (inactive)
- GI50 [27]: 33.7 µM (inactive)
- GI50 [28]: 28.1 µM (inactive)
- GI50 [29]: 53.2 µM (inactive)
- GI50 [30]: 52.6 µM (inactive)
- GI50 [31]: 18.5 µM (inactive)
- GI50 [32]: 44.1 µM (inactive)
- GI50 [33]: 37.6 µM (inactive)
- GI50 [34]: 35.4 µM (inactive)
- GI50 [35]: 31.3 µM
- GI50 [36]: 27 µM (inactive)
- GI50 [37]: 23.6 µM (inactive)
- GI50 [38]: 20 µM (inactive)
- GI50 [39]: 31.9 µM (inactive)
- GI50 [40]: 43.7 µM (inactive)
- GI50 [41]: 19.5 µM (inactive)
- GI50 [42]: 35.2 µM (inactive)
- GI50 [43]: 24.5 µM (inactive)
- GI50 [44]: 28.7 µM (inactive)
- GI50 [45]: 22.6 µM (inactive)
- GI50 [46]: 32 µM (inactive)
- GI50 [47]: 24.1 µM (inactive)
- GI50 [48]: 24 µM (inactive)
- GI50 [49]: 41.2 µM (inactive)
- GI50 [50]: 21.4 µM (inactive)
- GI50 [51]: 30.5 µM (inactive)
- GI50 [52]: 36 µM (inactive)
- GI50 [53]: 41 µM (inactive)
- GI50 [54]: 16.9 µM (inactive)
- GI50 [55]: 28.4 µM (inactive)
- GI50 [56]: 39.4 µM (inactive)
- GI50 [57]: 22.2 µM (inactive)

Structure (SMILES): O=C1C[C@H](c2ccccc2)C2(C(=O)c3ccccc3C2=O)[C@@H](c2ccccc2)C1
- GI50 [1]: 35.6 µM (inactive)
- GI50 [2]: 10.8 µM (inactive)
- GI50 [3]: 19 µM (inactive)
- GI50 [4]: 38.5 µM (inactive)
- GI50 [58]: 23.3 µM (inactive)
- GI50 [6]: 23.9 µM (inactive)
- GI50 [7]: 6.04 µM (inactive)
- GI50 [8]: 16.3 µM (inactive)
- GI50 [11]: 6.24 µM (inactive)
- GI50 [13]: 9.55 µM (inactive)
- GI50 [14]: 16.9 µM (inactive)
- GI50 [15]: 23.2 µM (inactive)
- GI50 [16]: > 100 µM (inactive)
- GI50 [17]: 36.7 µM (inactive)
- GI50 [18]: 21.2 µM (inactive)
- GI50 [19]: 92.7 µM (inactive)
- GI50 [20]: 33.3 µM (inactive)
- GI50 [21]: 37.2 µM (inactive)
- GI50 [22]: 73.1 µM (inactive)
- GI50 [23]: 24.2 µM (inactive)
- GI50 [25]: 7.59 µM (inactive)
- GI50 [26]: 26.4 µM (inactive)
- GI50 [27]: 16.2 µM (inactive)
- GI50 [28]: 30.2 µM (inactive)
- GI50 [29]: 17.1 µM (inactive)
- GI50 [30]: 20.7 µM (inactive)
- GI50 [31]: 19.6 µM (inactive)
- GI50 [32]: 31.5 µM (inactive)
- GI50 [33]: 12.8 µM (inactive)
- GI50 [35]: 25.3 µM
- GI50 [37]: 28.4 µM (inactive)
- GI50 [38]: 18.4 µM (inactive)
- GI50 [39]: 42.2 µM (inactive)
- GI50 [41]: 43.1 µM (inactive)
- GI50 [43]: 8.87 µM (inactive)
- GI50 [44]: > 10 µM (inactive)
- GI50 [45]: > 10 µM (inactive)
- GI50 [46]: 9.86 µM (inactive)
- GI50 [47]: 11.8 µM (inactive)
- GI50 [48]: 24.9 µM (inactive)
- GI50 [50]: 25.8 µM (inactive)
- GI50 [51]: 32.5 µM (inactive)
- GI50 [52]: 14.4 µM (inactive)
- GI50 [53]: 13.6 µM (inactive)
- GI50 [54]: 26.9 µM (inactive)
- GI50 [55]: 25.6 µM (inactive)
- GI50 [56]: 48.6 µM (inactive)
- GI50 [57]: 7.64 µM (inactive)
